Like-named read-outs stand apart in the source and are kept apart here.
Tests used:
E. coli GC 2236 = assay: MIC, broth microdilution; settings: Escherichia coli
E. coli GC 2235 = assay: MIC, broth microdilution; settings: Escherichia coli
E. coli GC 2233 = assay: MIC, broth microdilution; settings: Escherichia coli
E. coli GC 2270 = assay: MIC, broth microdilution; settings: Escherichia coli
E. coli GC 2271 = assay: MIC, broth microdilution; settings: Escherichia coli
E. coli GC 3226 = assay: MIC, broth microdilution; settings: Escherichia coli
E. coli GC 1073 = assay: MIC, broth microdilution; settings: Escherichia coli
S. typhimurium GC 2172 = assay: MIC, broth microdilution; settings: Salmonella enterica, TYPHIMURIUM
S. aureus GC 1079 = assay: MIC, broth microdilution; settings: Staphylococcus aureus
S. aureus GC 6335 = assay: MIC, broth microdilution; settings: Staphylococcus aureus
S. aureus GC 6469 = assay: MIC, broth microdilution; settings: Staphylococcus aureus
E. faecalis GC 4555 = assay: MIC, broth microdilution; settings: Enterococcus faecalis
E. faecalis GC 2265 = assay: MIC, broth microdilution; settings: Enterococcus faecalis
E. faecium GC 4556 = assay: MIC, broth microdilution; settings: Enterococcus faecium
Description: (§1) Antimicrobial susceptibility testing. The in vitro activities of the antibiotics are determined by the broth microdilution method as recommended by the National Committee for Clinical Laboratory Standards (NCCLS) (1). Mueller-Hinton II broth (MHBII)(BBL Cockeysville, Md.) is the medium employed in the testing procedures. Microtiter plates containing serial dilutions of each antimicrobial agent are inoculated with each organism to yield the appropriate density (10^5 CFU/ml) in a 100 μl final volume. The plates are incubated for 18-22 hours at 35° C. in ambient air.
(§2) Representative compounds were first incubated in mouse serum for an hour prior to the in vitro testing against a panel of selected gram-positive and gram-negative bacteria strains. All compounds were also pre-incubated in water for an hour prior to testing as control. Representative compounds of Formula I were incubated in human serum prior to MIC determination.

E. faecium GC 2243 = assay: MIC, broth microdilution; settings: Enterococcus faecium
S. pyogenes GC 4563 = assay: MIC, broth microdilution; settings: Streptococcus pyogenes
S. agalactiae GC 4564 = assay: MIC, broth microdilution; settings: Streptococcus agalactiae
c. albicans GC 3066 = assay: MIC, broth microdilution
E. coli = assay: Range of MIC for E. coli strains; settings: Escherichia coli
Description: as §1, §2

Staph. = assay: Range of MIC for Staph. strains, including MRSA; settings: Staphylococcus aureus

CCCN(CC(=O)Nc1cc(N(C)C)c2c(c1O)C(=O)C1=C(O)[C@]3(O)C(=O)C(C(N)=O)=C(O)[C@@H](N(C)C)[C@@H]3C[C@@H]1C2)C(=O)OCOC(=O)c1ccsc1 [Example 27, ({[(2-{[(5aR,6aS,7S,10aS)-9-(aminocarbonyl)-4,7-bis(dimethylamino)-1,8,10a,11-tetrahydroxy-10,12-dioxo-5,5a,6,6a,7,10,10a,12-octahydrotetracen-2-yl]amino}-2-oxoethyl)(propyl)amino]carbonyl}oxy)methyl thiophene-3-carboxylate]
0.5 to 4 µg/mL: MIC (Staph.; read-out: Minimum inhibitory concentration (MIC), Staph (Water))
0.5 µg/mL: MIC (E. coli GC 2236; GC2236, read-out: MINIMAL INHIBITORY CONCENTRATION MIC, pre-incubated in Mouse Serum) | MIC (E. coli GC 2235; GC2235, read-out: MINIMAL INHIBITORY CONCENTRATION MIC, pre-incubated in Mouse Serum) | MIC (E. coli GC 2233; GC2233, read-out: MINIMAL INHIBITORY CONCENTRATION MIC, pre-incubated in Mouse Serum) | MIC (E. coli GC 2270; GC2270, read-out: MINIMAL INHIBITORY CONCENTRATION MIC, pre-incubated in Mouse Serum) | MIC (E. coli GC 2271; GC2271, read-out: MINIMAL INHIBITORY CONCENTRATION MIC, pre-incubated in Mouse Serum) | MIC (E. coli GC 3226; GC3226, read-out: MINIMAL INHIBITORY CONCENTRATION MIC, pre-incubated in Mouse Serum) | MIC (E. coli GC 1073; GC1073, read-out: MINIMAL INHIBITORY CONCENTRATION MIC, pre-incubated in Mouse Serum) | MIC (S. aureus GC 6335; GC6335, read-out: MINIMAL INHIBITORY CONCENTRATION MIC, pre-incubated in Water) | MIC (E. faecium GC 4556; GC4556, read-out: MINIMAL INHIBITORY CONCENTRATION MIC, pre-incubated in Mouse Serum)
64 µg/mL: MIC (E. coli GC 2236; GC2236, read-out: MINIMAL INHIBITORY CONCENTRATION MIC, pre-incubated in Water) | MIC (E. coli GC 2235; GC2235, read-out: MINIMAL INHIBITORY CONCENTRATION MIC, pre-incubated in Water) | MIC (E. coli GC 2233; GC2233, read-out: MINIMAL INHIBITORY CONCENTRATION MIC, pre-incubated in Water) | MIC (E. coli GC 2270; GC2270, read-out: MINIMAL INHIBITORY CONCENTRATION MIC, pre-incubated in Water) | MIC (E. coli GC 2271; GC2271, read-out: MINIMAL INHIBITORY CONCENTRATION MIC, pre-incubated in Water)
1 µg/mL: MIC (S. aureus GC 1079; GC1079, read-out: MINIMAL INHIBITORY CONCENTRATION MIC, pre-incubated in Mouse Serum) | MIC (S. aureus GC 6469; GC6469, read-out: MINIMAL INHIBITORY CONCENTRATION MIC, pre-incubated in Mouse Serum) | MIC (E. faecalis GC 4555; GC4555, read-out: MINIMAL INHIBITORY CONCENTRATION MIC, pre-incubated in Water) | MIC (E. faecalis GC 2265; GC2265, read-out: MINIMAL INHIBITORY CONCENTRATION MIC, pre-incubated in Mouse Serum) | MIC (E. faecium GC 4556; GC4556, read-out: MINIMAL INHIBITORY CONCENTRATION MIC, pre-incubated in Water)
0.5 to 1 µg/mL: MIC (E. coli; 20 h, read-out: Range of MIC, E. coli (Mouse Serum)) | MIC (E. coli; read-out: Range of MIC, E. coli (mouse serum))
2 µg/mL: MIC (S. aureus GC 1079; GC1079, read-out: MINIMAL INHIBITORY CONCENTRATION MIC, pre-incubated in Water) | MIC (S. aureus GC 6469; GC6469, read-out: MINIMAL INHIBITORY CONCENTRATION MIC, pre-incubated in Water) | MIC (E. faecalis GC 2265; GC2265, read-out: MINIMAL INHIBITORY CONCENTRATION MIC, pre-incubated in Water)
> 64 µg/mL: MIC (E. coli GC 3226; GC3226, read-out: MINIMAL INHIBITORY CONCENTRATION MIC, pre-incubated in Water) | MIC (E. coli GC 1073; GC1073, read-out: MINIMAL INHIBITORY CONCENTRATION MIC, pre-incubated in Water) | MIC (S. typhimurium GC 2172; read-out: MINIMAL INHIBITORY CONCENTRATION MIC, pre-incubated in Water) | MIC (c. albicans GC 3066; Candida albicans, GC3066, read-out: MINIMAL INHIBITORY CONCENTRATION MIC)
0.12 to 2 µg/mL: MIC (Staph.; MRSA, read-out: Range of MIC, Staph (Mouse Serum)) | MIC (Staph.; MRSA, read-out: Range of MIC, Staph (Water)) | MIC (Staph.; MRSA, read-out: Range of MIC, Staph. (mouse serum)) | MIC (Staph.; MRSA, read-out: Range of MIC, Staph. (water))
0.12 µg/mL: MIC (E. faecium GC 2243; GC2243, read-out: MINIMAL INHIBITORY CONCENTRATION MIC, pre-incubated in Mouse Serum) | MIC (S. agalactiae GC 4564; GC4564, read-out: MINIMAL INHIBITORY CONCENTRATION MIC, pre-incubated in Mouse Serum) | MIC (S. agalactiae GC 4564; GC4564, read-out: MINIMAL INHIBITORY CONCENTRATION MIC, pre-incubated in Water)
>64 UG/ML: MINIMAL INHIBITORY CONCENTRATION MIC (c. albicans GC 3066; pre-incubated in Water)
0.25 to 2 µg/mL: MIC (Staph.; read-out: Minimum inhibitory concentration (MIC), Staph (Human Serum))
0.25 µg/mL: MIC (S. aureus GC 6335; GC6335, read-out: MINIMAL INHIBITORY CONCENTRATION MIC, pre-incubated in Mouse Serum) | MIC (E. faecalis GC 4555; GC4555, read-out: MINIMAL INHIBITORY CONCENTRATION MIC, pre-incubated in Mouse Serum) | MIC (E. faecium GC 2243; GC2243, read-out: MINIMAL INHIBITORY CONCENTRATION MIC, pre-incubated in Water)
4 µg/mL: MIC (S. typhimurium GC 2172; read-out: MINIMAL INHIBITORY CONCENTRATION MIC, pre-incubated in Mouse Serum)
< 0.06 µg/mL: MIC (S. pyogenes GC 4563; GC4563, read-out: MINIMAL INHIBITORY CONCENTRATION MIC, pre-incubated in Mouse Serum) | MIC (S. pyogenes GC 4563; GC4563, read-out: MINIMAL INHIBITORY CONCENTRATION MIC, pre-incubated in Water)
4 to 16 µg/mL: MIC (E. coli; read-out: Minimum inhibitory concentration (MIC), E. coli (Human Serum))

From US20070049564A1 (Wyeth, priority 2005, published 2007)
